How the values were obtained:
[1] = clinical; details: human, in vivo
Description: Fraction absorbed in human

[2] = tested on: P-gp; test: in vitro; details: human
[3] = in vitro; details: human, Caco-2
[4] = in vitro; details: human, Caco-2; remark: listed apart in the source
[5] = in vitro; details: human, Caco-2; remark: listed apart in the source
[6] = human, caco-2, 2 h, 10 µM
[7] = human, caco-2, 2 h, 10 µM; remark: listed apart in the source

| Compound | Fa [1] | efflux ratio at 2 h, 10 µM ([2]; Caco-2) | Papp A→B at 2 h, 10 µM [3] | Papp B→A at 2 h, 10 µM [4] | efflux ratio at 2 h, 10 µM [5] | Papp [6] | Papp [7] | efflux ratio at 2 h, 10 µM ([2]; Caco-2, with LY335979 1 uM) |
| --- | --- | --- | --- | --- | --- | --- | --- | --- |
| CCCCC(=O)N(Cc1ccc(-c2ccccc2-c2nnn[nH]2)cc1)[C@H](C(=O)O)C(C)C | 25% | 2.9 | 0.4 ×10⁻⁶ cm/s | 1.7 ×10⁻⁶ cm/s | 4.1 |  |  |  |
| CC(C)(C)NC(=O)[C@@H]1C[C@@H]2CCCC[C@@H]2CN1C[C@@H](O)[C@H](Cc1ccccc1)NC(=O)[C@H](CC(N)=O)NC(=O)c1ccc2ccccc2n1 | 4% |  |  |  |  | 0.4 ×10⁻⁶ cm/s | 5.6 ×10⁻⁶ cm/s |  |
| CC(C)CN(C[C@@H](O)[C@H](Cc1ccccc1)NC(=O)O[C@H]1CCOC1)S(=O)(=O)c1ccc(N)cc1 | 70% |  | 8 ×10⁻⁶ cm/s |  |  |  |  |  |
| CNS(=O)(=O)Cc1ccc2[nH]cc(CCN(C)C)c2c1 |  |  | 1.5 ×10⁻⁶ cm/s | 2.2 ×10⁻⁶ cm/s | 1.4 |  |  | 0.5 |
| CC1=C(CC(=O)O)c2cc(F)ccc2/C1=C\c1ccc([S+](C)[O-])cc1 (configuration not stated) | 90% |  |  |  | 3.6 | 2 ×10⁻⁶ cm/s | 13.5 ×10⁻⁶ cm/s | 2.6 |
| O=C(O)CN(CCN(CC(=O)O)Cc1ccccc1O)Cc1ccccc1O |  |  | 0.02 ×10⁻⁶ cm/s | 0.04 ×10⁻⁶ cm/s | 2.1 |  |  | 2 |
| CC(C)(C)NC(=O)[C@@H]1CN(Cc2cccnc2)CCN1C[C@@H](O)C[C@@H](Cc1ccccc1)C(=O)N[C@H]1c2ccccc2C[C@H]1O.O | 63% | 0.8 | 2.4 ×10⁻⁶ cm/s | 22.8 ×10⁻⁶ cm/s | 9.7 |  |  |  |
| Cc1c(O)cccc1C(=O)N[C@@H](CSc1ccccc1)[C@H](O)CN1C[C@H]2CCCC[C@H]2C[C@H]1C(=O)NC(C)(C)C | 3% |  | 0.7 ×10⁻⁶ cm/s | 1.7 ×10⁻⁶ cm/s | 2.5 |  |  | 0.7 |
| CCCC(=O)Nc1ccc(OCC(O)CNC(C)C)c(C(C)=O)c1 (configuration not stated) [ACEBUTOLOL] | 70% | 1 | 1.1 ×10⁻⁶ cm/s | 4.1 ×10⁻⁶ cm/s | 3.6 |  |  |  |
| COCc1c(C(C)C)nc(C(C)C)c(/C=C/[C@@H](O)C[C@@H](O)CC(=O)O)c1-c1ccc(F)cc1 [CERIVASTATIN] | 98% |  |  |  |  |  |  |  |
| O=C(O)COCCN1CCN(C(c2ccccc2)c2ccc(Cl)cc2)CC1 (configuration not stated) [CETIRIZINE] | 66% |  |  |  |  |  |  |  |
| CCN(CC)CCCC(C)Nc1ccnc2cc(Cl)ccc12 (configuration not stated) [CHLOROQUINE] | 89% |  |  |  |  |  |  |  |
| CC[C@H]1OC(=O)[C@H](C)[C@@H](O[C@H]2C[C@@](C)(OC)[C@@H](O)[C@H](C)O2)[C@H](C)[C@@H](O[C@@H]2O[C@H](C)C[C@H](N(C)C)[C@H]2O)[C@](C)(OC)C[C@@H](C)C(=O)[C@H](C)[C@@H](O)[C@]1(C)O [CLARITHROMYCIN] | 50% | 0.8 | 3.5 ×10⁻⁶ cm/s | 18 ×10⁻⁶ cm/s | 5.1 |  |  |  |
| OCCN(CCO)c1nc(N2CCCCC2)c2nc(N(CCO)CCO)nc(N3CCCCC3)c2n1 [DIPYRIDAMOLE] | 66% |  |  |  |  |  |  |  |
| OC(Cn1cncn1)(Cn1cncn1)c1ccc(F)cc1F [FLUCONAZOLE] |  | 0.1 | 11.6 ×10⁻⁶ cm/s | 6.7 ×10⁻⁶ cm/s | 0.6 |  |  |  |
| CNCCC(Oc1ccc(C(F)(F)F)cc1)c1ccccc1 (configuration not stated) [FLUOXETINE] | 70% |  |  |  |  |  |  |  |
| O=C(CCCN1CCC(O)(c2ccc(Cl)cc2)CC1)c1ccc(F)cc1 [HALOPERIDOL] | 60% |  | 4.1 ×10⁻⁶ cm/s | 1.8 ×10⁻⁶ cm/s | 0.4 |  |  | 0.4 |
| Cc1ccc(NC(=O)c2ccc(CN3CCN(C)CC3)cc2)cc1Nc1nccc(-c2cccnc2)n1 [IMATINIB] | 67% |  |  |  |  |  |  |  |
| Nc1cc(-c2ccncc2)c[nH]c1=O [INAMRINONE] |  |  |  |  | 1.4 | 7.5 ×10⁻⁶ cm/s | 16.6 ×10⁻⁶ cm/s | 3.3 |
| CCc1c2c(nc3ccc(OC(=O)N4CCC(N5CCCCC5)CC4)cc13)-c1cc3c(c(=O)n1C2)COC(=O)[C@]3(O)CC [IRINOTECAN] |  |  | 1.4 ×10⁻⁶ cm/s | 5.1 ×10⁻⁶ cm/s | 3.7 |  |  | 2.7 |

| Compound | Fa [1] | efflux ratio at 2 h, 10 µM ([2]; Caco-2) | Papp A→B at 2 h, 10 µM [3] | Papp B→A at 2 h, 10 µM [4] | efflux ratio at 2 h, 10 µM [5] | Papp [6] | Papp [7] | efflux ratio at 2 h, 10 µM ([2]; Caco-2, with LY335979 1 uM) |
| --- | --- | --- | --- | --- | --- | --- | --- | --- |
| CC(=O)N1CCN(c2ccc(OCC3COC(Cn4ccnc4)(c4ccc(Cl)cc4Cl)O3)cc2)CC1 (configuration not stated) [KETOCONAZOLE] | 90% |  | 18 ×10⁻⁶ cm/s | 5.1 ×10⁻⁶ cm/s |  |  |  |  |
| CN(C)C(=O)C(CCN1CCC(O)(c2ccc(Cl)cc2)CC1)(c1ccccc1)c1ccccc1 [LOPERAMIDE] |  |  | 5.8 ×10⁻⁶ cm/s | 7.6 ×10⁻⁶ cm/s |  |  |  |  |
| C[C@H]1C[C@@H]2[C@H]([C@@H](O)C[C@@]3(C)[C@H]2CC[C@]3(O)C(=O)CO)[C@@]2(C)C=CC(=O)C=C12 [METHYLPREDNISOLONE] |  |  | 8.5 ×10⁻⁶ cm/s | 24.6 ×10⁻⁶ cm/s | 2.9 |  |  | 0.8 |
| O=C1c2c(O)ccc(O)c2C(=O)c2c(NCCNCCO)ccc(NCCNCCO)c21 [MITOXANTRONE] | 85% | 0.6 | 26.3 ×10⁻⁶ cm/s | 12.5 ×10⁻⁶ cm/s | 0.5 |  |  |  |
| COC(=O)C1=C(C)NC(C)=C(C(=O)OCCN(C)Cc2ccccc2)C1c1cccc([N+](=O)[O-])c1 (configuration not stated) [NICARDIPINE] | 100% | 0.5 | 5 ×10⁻⁶ cm/s | 2.6 ×10⁻⁶ cm/s | 0.5 |  |  |  |
| O=C1CN(/N=C/c2ccc([N+](=O)[O-])o2)C(=O)N1 [NITROFURANTOIN] | 100% |  | 1.1 ×10⁻⁶ cm/s | 11.1 ×10⁻⁶ cm/s | 10.4 |  |  |  |
| CCn1cc(C(=O)O)c(=O)c2cc(F)c(N3CCNCC3)cc21 [NORFLOXACIN] | 40% | 1.7 | 1.9 ×10⁻⁶ cm/s | 3.3 ×10⁻⁶ cm/s | 1.7 |  |  |  |
| O=C(O)c1cc(/N=N/c2ccc(O)c(C(=O)O)c2)ccc1O [OLSALAZINE] |  |  | 0.9 ×10⁻⁶ cm/s | 3.1 ×10⁻⁶ cm/s | 3.7 |  |  | 1.9 |
| CC(=O)O[C@H]1C(=O)[C@@]2(C)[C@H]([C@H](OC(=O)c3ccccc3)[C@]3(O)C[C@H](OC(=O)[C@H](O)[C@@H](NC(=O)c4ccccc4)c4ccccc4)C(C)=C1C3(C)C)[C@]1(OC(C)=O)CO[C@@H]1C[C@@H]2O [PACLITAXEL] | 6% |  |  |  |  |  |  |  |
| COc1cc2nc(N3CCN(C(=O)c4ccco4)CC3)nc(N)c2cc1OC [PRAZOSIN] | 100% |  | 6.2 ×10⁻⁶ cm/s | 11.1 ×10⁻⁶ cm/s | 1.8 |  |  |  |
| COC(=O)[C@H]1[C@H]2C[C@@H]3c4[nH]c5cc(OC)ccc5c4CCN3C[C@H]2C[C@@H](OC(=O)c2cc(OC)c(OC)c(OC)c2)[C@@H]1OC [RESERPINE] | 50% | 0.7 | 3.6 ×10⁻⁶ cm/s | 2.3 ×10⁻⁶ cm/s | 0.6 |  |  |  |
| CC(C)c1nc(CN(C)C(=O)N[C@H](C(=O)N[C@@H](Cc2ccccc2)C[C@H](O)[C@H](Cc2ccccc2)NC(=O)OCc2cncs2)C(C)C)cs1 [RITONAVIR] | 66% |  | 2.1 ×10⁻⁶ cm/s | 9.2 ×10⁻⁶ cm/s |  |  |  |  |
| CC(C)c1nc(N(C)S(C)(=O)=O)nc(-c2ccc(F)cc2)c1/C=C/[C@@H](O)C[C@@H](O)CC(=O)O [ROSUVASTATIN] | 20% |  | 0.5 ×10⁻⁶ cm/s | 7.5 ×10⁻⁶ cm/s | 15.9 |  |  |  |
| C=CC[C@@H]1/C=C(\C)C[C@H](C)C[C@H](OC)[C@H]2O[C@@](O)(C(=O)C(=O)N3CCCC[C@H]3C(=O)O[C@H](/C(C)=C/[C@@H]3CC[C@@H](O)[C@H](OC)C3)[C@H](C)[C@@H](O)CC1=O)[C@H](C)C[C@@H]2OC [TACROLIMUS ANHYDROUS] | 25% |  | 1 ×10⁻⁶ cm/s | 3.6 ×10⁻⁶ cm/s | 3.5 |  |  | 0.7 |
| COc1cc([C@@H]2c3cc4c(cc3[C@@H](O[C@@H]3O[C@@H]5CO[C@@H](c6cccs6)O[C@H]5[C@H](O)[C@H]3O)[C@H]3COC(=O)[C@H]23)OCO4)cc(OC)c1O [TENIPOSIDE] | 0% |  | 0.9 ×10⁻⁶ cm/s | 8.8 ×10⁻⁶ cm/s | 9.8 |  |  | 2.1 |
| CN1CCN(CCCN2c3ccccc3Sc3ccc(C(F)(F)F)cc32)CC1 [TRIFLUOPERAZINE] | 16% | 0.9 | 0.5 ×10⁻⁶ cm/s | 1 ×10⁻⁶ cm/s | 1.9 |  |  |  |
| COc1cc(Cc2cnc(N)nc2N)cc(OC)c1OC [TRIMETHOPRIM] |  | 0.4 | 15.9 ×10⁻⁶ cm/s | 11.2 ×10⁻⁶ cm/s | 0.7 |  |  |  |
| CC[C@]1(O)C[C@H]2CN(CCc3c([nH]c4ccccc34)[C@@](C(=O)OC)(c3cc4c(cc3OC)N(C=O)[C@H]3[C@@](O)(C(=O)OC)[C@H](OC(C)=O)[C@]5(CC)C=CCN6CC[C@]43[C@@H]65)C2)C1 [VINCRISTINE] | < 10% |  |  |  |  | 0.4 ×10⁻⁶ cm/s | 3.5 ×10⁻⁶ cm/s | 8.6 |
| CCC1=C[C@@H]2CN(C1)Cc1c([nH]c3ccccc13)[C@@](C(=O)OC)(c1cc3c(cc1OC)N(C)[C@H]1[C@@](O)(C(=O)OC)[C@H](OC(C)=O)[C@]4(CC)C=CCN5CC[C@]31[C@@H]54)C2 [VINORELBINE] | 45% |  | 1.4 ×10⁻⁶ cm/s | 8.5 ×10⁻⁶ cm/s | 5.9 |  |  | 1 |
| Cc1cn([C@H]2C[C@H](N=[N+]=[N-])[C@@H](CO)O2)c(=O)[nH]c1=O [ZIDOVUDINE] | 90% |  | 6.7 ×10⁻⁶ cm/s | 9.6 ×10⁻⁶ cm/s | 1.4 |  |  |  |

— ChEMBL document CHEMBL3526001, “Attenuation of intestinal absorption by major efflux transporters: quantitative tools and strategies using a Caco-2 model” (Drug Metab Dispos, 2011)
